Measured values published in patent publication US4694006A, “Acyl- or acyloxymethyl-allopurinol prodrugs” (priority 1983, dated 1987).
≈ marks a conversion by molar mass, not a printed value. Structures can show the parent of a compound that is named as a salt. Where two headings read alike, the source gives them in different places.

How the values were obtained:
[1] = Method: (§1) The water-solubility and lipophilicity of the allopurinol drugs
(§2) The apparent partition coefficients (P) for some allopurinol derivatives and allopurinol were measured using the widely used 1-octanol-water system. Similarly, the solubility of the derivatives in water or aqueous buffer solutions was determined.

[2] = In-vitro cleavage of allopurinol derivatives to allopurinol in 80% human plasma (pH 7.4) at 37° C; format: in vitro ADME; settings: 80% plasma, pH 7.4, 37° C, read-out: Half-time (t0.5) of the conversion to allopurinol, 80% human plasma (converted)
Method: (§3) In-vitro cleavage of allopurinol derivatives
(§4) Solutions of various derivatives of allopurinol in aqueous buffer solutions or 80% human plasma solutions (pH 7.4) were kept at 37° C. The initial concentration of the derivatives was in the range 0.01-0.1 mg/ml. At various times an aliquot of the solutions was withdrawn and analyzed by HPLC for remaining derivative as well as for allopurinol. For the plasma solutions the aliquot withdrawn was deproteinized with ethanol or trichloroacetic acid and after centrifugation, the clear supernatant was injected on HPLC.
(§5) An HPLC method was used for the determination of allopurinol and its derivatives. In this method a reversed-phase LiChrosorb RP-8 column (250×4 mm) was eluated at ambient temperature with mixtures of methanol and 0.01M acetate buffer pH 4.5 or methanol and 0.03M phosphate buffer pH 7.0. The composition of the eluant was adjusted for each compound in order to provide an appropriate retention time. The flow rate was 1.2 ml/min and the column effluent was monitored spectrophotometrically at 252 nm or 274 nm. Quantitation of the compounds was done by measurement of peak heights.
(§6) The half-times of allopurinol formation from various derivatives at physiological conditions of pH and temperature are given in Table 2. It can be seen that in the presence of human plasma the rate of degradation is strongly accelerated, thus showing the susceptibility of the derivatives to undergo conversion into the parent active compound at conditions simiar to those prevailing in vivo.

[3] = physchem; settings: for solubility: water
Method: as §1, §2

[4] = In-vitro cleavage of allopurinol derivatives to allopurinol in pH 7.4 buffer at 37° C; format: physicochemical; settings: read-out: Half-time (t0.5) of the conversion to allopurinol, pH 7.4 buffer (converted)
Method: as §3, §4, §5, §6

[5] = system: man; settings: cited from earlier work
[6] = cited from earlier work
[7] = Bioavailability following rectal administration to rabbits (suppositories, micro-enemas); settings: rabbit, in vivo, 25 mg
Method: (§7) The suppositories or micro-enemas were administered to rabbits. After drug administration, blood samples were taken at various times and the plasma fraction assayed for allopurinol and its major metabolite oxipurinol using the HPLC method described above.

[8] = system: rabbits; assay: as above; settings: rabbits, rectal suppositories, 25 mg allopurinol equivalents, all three blood sampling times
Method: as §7

[9] = intravenous (Breithaupt & Tittel, 1982); cited from earlier work
[10] = system: man; settings: rectal, various suppository preparations; cited from earlier work
[11] = system: rabbits; assay: Intravenous administration to four rabbits, plasma levels; format: in vivo, rabbit; settings: i.v., 25 mg allopurinol equivalents
[12] = Comparative absorption study following peroral administration, urinary excretion; format: in vivo; settings: urine, po, human, dose corresponding to 100 mg allopurinol, read-out: total urinary excretion of allopurinol and oxipurinol
Method: A comparative absorption study was also made of allopurinol and the above mentioned prodrug following peroral administration. […] The total urinary excretion of allopurinol and oxipurinol was measured and found to correspond to 67% of the dose given for the allopurinol tablet and 92% for the preparation containing the prodrug derivative.

[13] = system: healthy human volunteer; assay: Rectal micro-enema in a healthy human volunteer, urinary excretion; format: in vivo; settings: 100 mg allopurinol equivalents
Method: The dose given (2 ml of a 0.5% methylcellulose solution containing 118 mg/ml of the prodrug) corresponded to 100 mg of allopurinol. Urine was collected over 5 days and aliquots were assayed for allopurinol and oxipurinol by a specific HPLC assay.

[14] = in vivo; cited from earlier work

CCCC(=O)OCn1cc2c(=O)[nH]cnc2n1 [2-(Butyryloxymethyl)allopurinol]
log P [1]: 0.33
half-life [2]: 22 min
solubility [3]: 1500 µg/mL (≈ 6.35 mM)
half-life [4]: 3240 min

NC(C(=O)OCn1ncc2c(=O)[nH]cnc21)c1ccccc1 (racemic) [1-(DL-Phenylglycyloxymethyl)allopurinol, 1-(DL-Phenylglycyloxymethyl)allopurinol (hydrobromide)]
log P ([1]; pH 8): -0.15
half-life [2]: 3 min
solubility [3]: > 200000 µg/mL
half-life [4]: 20 min

CCC(=O)n1ncc2c(O)ncnc21 [1-(Propionyl)allopurinol]
log P [1]: 0.30
half-life [2]: 4 min
solubility [3]: 300 µg/mL (≈ 1.56 mM)
half-life [4]: 30 min

CCN(CC)C(=O)CCC(=O)OCn1ncc2c(O)ncnc21 [1-[3-(N,N-Diethylcarbamoyl)propionyloxymethyl]allopurinol]
log P [1]: -0.22
half-life [2]: 504 min
solubility [3]: 33000 µg/mL (≈ 103 mM)
half-life [4]: 4860 min

CCN(CC)C(C)C(=O)OCn1ncc2c(=O)[nH]cnc21 (racemic) [1-(DL-N,N-Diethylalanyloxymethyl)allopurinol (hydrochloride)]
log P ([1]; pH 8): 0.72
half-life [2]: 17 min
solubility [3]: > 400000 µg/mL
half-life [4]: 21 min

NC(Cc1ccccc1)C(=O)OCn1ncc2c(=O)[nH]cnc21 (racemic) [1-(DL-Phenylalanyloxymethyl)allopurinol, 1-(DL-Phenylalanyloxymethyl)allopurinol (hydrobromide)]
log P ([1]; pH 8): 0.40
half-life [2]: 9 min
solubility [3]: > 200000 µg/mL
half-life [4]: 40 min

CCCC(=O)OCn1cc2c(=O)n(COC(=O)CCC)cnc2n1 [2,5-bis(Butyryloxymethyl)allopurinol]
log P [1]: 1.60
half-life [2]: 32 min
solubility [3]: 94 µg/mL (≈ 0.279 mM)
half-life [4]: 2100 min

Oc1ncnc2[nH]ncc12 [Allopurinol, allopurinol]
absolute systemic bioavailability of oral tablets ([5]; man, oral tablets (Appelbaum et al., 1982)): about 70%
oral dose excreted in the stool unchanged ([5]; oral dose (Elion et al., 1966)): 20-25%
log P ([1]; Between octanol and water): -0.55
solubility in water ([6]; 25° C): about 0.5 mg/ml
Fa [7]: < 2%
plasma levels of allopurinol after rectal administration [8]: below 1 μg/ml
dose recovered in the urine as intact allopurinol [9]: 12%
dose recovered in the urine, total [9]: about 88%
amount absorbed from suppository preparations administered rectally [10]: < 5%
plasma levels of allopurinol after intravenous administration ([11]; all blood sampling times): below 1 μg/ml
solubility [3]: 500 µg/mL (≈ 3.67 mM)
dose excreted [12]: 67%

CC(C)C[C@H](N)C(=O)OCn1ncc2c(=O)[nH]cnc21 [1-(L-Leucyloxymethyl)allopurinol, 1-(L-Leucyloxymethyl)allopurinol (hydrobromide)]
log P ([1]; pH 8): 0.19
half-life [2]: 6 min
solubility [3]: > 400000 µg/mL
half-life [4]: 17 min

CCN(CC)CC(=O)OCn1ncc2c(=O)[nH]cnc21
half-life [2]: 10 min
bioavailability of the parent drug from the prodrug given intravenously [11]: almost complete bioavailability
bioavailability of the parent drug from the prodrug given rectally [13]: virtually complete bioavailability
aqueous solubility relative to the parent compound (factor) [3]: 5,000
solubility [3]: > 500000 µg/mL
half-life [4]: 49 min

CCCC(=O)OCn1cnc2c(cnn2COC(=O)CCC)c1=O [1,5-bis(Butyryloxymethyl)allopurinol]
log P [1]: 1.82
half-life [2]: 22 min
solubility [3]: 50 µg/mL (≈ 0.149 mM)
half-life [4]: 1500 min

Oc1ncnc2[nH]ncc12 [sodium salt of allopurinol]
adverse effects of administration of infusion fluids [14]: may cause thrombophlebitis or perivascular inflammation
pH of infusion fluids ([6]; sodium salt of allopurinol at 0.5-1%): 10.5-11.5

CN(C)CC(=O)OCn1ncc2c(=O)[nH]cnc21 [1-(N,N-Dimethylglycyloxymethyl)allopurinol (hydrochloride)]
log P ([1]; pH 8): -0.49
half-life [2]: 7 min
solubility [3]: > 500000 µg/mL
half-life [4]: 72 min

CCCN(CCC)CC(=O)OCn1ncc2c(=O)[nH]cnc21 [1-(N,N-Dipropylglycyloxymethyl)allopurinol (hydrochloride)]
log P ([1]; pH 8): 1.27
half-life [2]: 12 min
solubility [3]: > 400000 µg/mL
half-life [4]: 50 min
